The values below come from ChEMBL document CHEMBL5465560, “Selectivity Literature for EUbOPEN Chemogenomic Library” (2024).

Test [1] deals with T1, Dual specificity mitogen-activated protein kinase kinase 6 (Homo sapiens) (UniProt P52564).
T1 sequence (whole entry): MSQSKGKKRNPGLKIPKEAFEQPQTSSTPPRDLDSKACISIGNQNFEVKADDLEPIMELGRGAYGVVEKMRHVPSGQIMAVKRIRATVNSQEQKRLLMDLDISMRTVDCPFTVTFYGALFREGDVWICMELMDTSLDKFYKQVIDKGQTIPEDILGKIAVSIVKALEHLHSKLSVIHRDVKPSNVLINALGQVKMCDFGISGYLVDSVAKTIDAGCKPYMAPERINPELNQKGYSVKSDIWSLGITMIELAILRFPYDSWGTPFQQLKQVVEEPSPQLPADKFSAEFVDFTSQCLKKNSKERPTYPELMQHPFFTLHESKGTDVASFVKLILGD
As to the kind of experiment: Selectivity interaction (KinomeScan (DiscoverX)) EUB0000666a MAP2K6. The following applies: at 10 µM.

For test [2], the target named is T2, Histone-lysine N-methyltransferase EHMT2 (Homo sapiens) (UniProt Q96KQ7).
T2 sequence (whole entry): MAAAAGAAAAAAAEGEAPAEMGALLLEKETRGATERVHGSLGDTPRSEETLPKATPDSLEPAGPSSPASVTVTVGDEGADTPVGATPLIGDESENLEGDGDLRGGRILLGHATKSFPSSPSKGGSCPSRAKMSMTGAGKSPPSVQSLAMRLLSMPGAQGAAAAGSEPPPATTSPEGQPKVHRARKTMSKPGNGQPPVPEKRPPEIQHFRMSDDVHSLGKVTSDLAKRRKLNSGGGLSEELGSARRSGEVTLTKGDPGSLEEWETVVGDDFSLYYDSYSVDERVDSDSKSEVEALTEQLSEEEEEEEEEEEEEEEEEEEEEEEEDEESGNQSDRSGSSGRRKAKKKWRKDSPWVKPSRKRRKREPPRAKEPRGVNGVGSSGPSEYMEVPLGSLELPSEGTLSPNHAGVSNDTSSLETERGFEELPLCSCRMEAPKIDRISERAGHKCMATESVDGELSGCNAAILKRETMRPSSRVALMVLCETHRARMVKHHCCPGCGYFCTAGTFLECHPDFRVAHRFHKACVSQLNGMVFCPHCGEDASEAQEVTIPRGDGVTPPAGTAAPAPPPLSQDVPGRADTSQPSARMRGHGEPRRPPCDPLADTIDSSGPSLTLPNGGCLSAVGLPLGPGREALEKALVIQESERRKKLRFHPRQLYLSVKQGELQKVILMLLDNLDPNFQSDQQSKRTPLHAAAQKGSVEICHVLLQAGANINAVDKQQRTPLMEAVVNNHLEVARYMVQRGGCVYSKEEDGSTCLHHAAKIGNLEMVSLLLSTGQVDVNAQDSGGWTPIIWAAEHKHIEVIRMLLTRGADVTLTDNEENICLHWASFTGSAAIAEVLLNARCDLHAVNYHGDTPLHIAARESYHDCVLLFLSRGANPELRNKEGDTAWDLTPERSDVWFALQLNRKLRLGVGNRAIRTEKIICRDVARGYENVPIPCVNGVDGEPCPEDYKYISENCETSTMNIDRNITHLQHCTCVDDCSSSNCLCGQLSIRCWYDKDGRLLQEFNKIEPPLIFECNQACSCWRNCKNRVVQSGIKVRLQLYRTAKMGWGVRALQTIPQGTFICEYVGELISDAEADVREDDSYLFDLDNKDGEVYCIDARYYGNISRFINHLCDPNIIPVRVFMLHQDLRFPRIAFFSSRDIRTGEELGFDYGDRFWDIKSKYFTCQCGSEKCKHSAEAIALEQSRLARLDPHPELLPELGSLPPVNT
The following applies: at 1 µM.

Test [3] deals with T3, Testis-specific serine/threonine-protein kinase 1 (Homo sapiens) (UniProt Q9BXA7).
T3 sequence (whole entry): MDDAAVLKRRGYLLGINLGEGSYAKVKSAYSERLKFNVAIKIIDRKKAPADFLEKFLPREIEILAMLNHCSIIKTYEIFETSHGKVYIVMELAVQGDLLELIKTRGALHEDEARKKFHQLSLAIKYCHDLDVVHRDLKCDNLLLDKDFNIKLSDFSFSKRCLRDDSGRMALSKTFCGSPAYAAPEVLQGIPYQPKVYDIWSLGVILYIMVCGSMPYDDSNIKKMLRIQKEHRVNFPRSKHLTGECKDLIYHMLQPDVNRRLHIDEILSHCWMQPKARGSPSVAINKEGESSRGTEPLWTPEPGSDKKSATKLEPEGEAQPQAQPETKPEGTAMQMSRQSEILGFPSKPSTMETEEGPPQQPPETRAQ
As to the kind of experiment: Selectivity interaction (KinomeScan (DiscoverX)) EUB0001619a TSSK1B. The following applies: at 1 µM.

In test [4] the target is T4, Homeodomain-interacting protein kinase 4 (Homo sapiens) (UniProt Q8NE63).
T4 sequence (whole entry): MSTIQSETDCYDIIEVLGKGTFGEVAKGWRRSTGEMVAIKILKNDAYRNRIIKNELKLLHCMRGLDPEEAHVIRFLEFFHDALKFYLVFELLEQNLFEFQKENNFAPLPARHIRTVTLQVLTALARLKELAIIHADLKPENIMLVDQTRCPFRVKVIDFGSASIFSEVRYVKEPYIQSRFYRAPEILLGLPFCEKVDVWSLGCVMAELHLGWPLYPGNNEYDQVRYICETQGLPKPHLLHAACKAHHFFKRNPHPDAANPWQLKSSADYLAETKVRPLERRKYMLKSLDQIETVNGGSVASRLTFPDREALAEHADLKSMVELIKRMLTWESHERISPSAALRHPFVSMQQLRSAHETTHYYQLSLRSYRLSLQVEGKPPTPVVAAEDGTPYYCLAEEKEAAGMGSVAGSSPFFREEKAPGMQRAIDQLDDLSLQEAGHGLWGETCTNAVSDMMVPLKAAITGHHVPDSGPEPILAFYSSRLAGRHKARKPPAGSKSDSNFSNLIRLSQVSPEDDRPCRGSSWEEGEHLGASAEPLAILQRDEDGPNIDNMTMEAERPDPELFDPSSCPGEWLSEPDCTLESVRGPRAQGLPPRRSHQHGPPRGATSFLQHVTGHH
As to the kind of experiment: Selectivity interaction (Kinase panel (Invitrogen)) EUB0000639a HIPK4. The following applies: at 200 nM.

Test [5] has as its target Mitogen-activated protein kinase kinase kinase 1 (Homo sapiens, UniProt Q13233). The experiment in a line: Selectivity interaction (ActivX KiNativ screen (kinase selectivity in THP-1 cell lysates)) EUB0000639a MAP3K1. It counts as subcellular. To be noted: lysate.

Structures are written as SMILES.

Sequence of Mitogen-activated protein kinase kinase kinase 1 (Q13233 whole entry): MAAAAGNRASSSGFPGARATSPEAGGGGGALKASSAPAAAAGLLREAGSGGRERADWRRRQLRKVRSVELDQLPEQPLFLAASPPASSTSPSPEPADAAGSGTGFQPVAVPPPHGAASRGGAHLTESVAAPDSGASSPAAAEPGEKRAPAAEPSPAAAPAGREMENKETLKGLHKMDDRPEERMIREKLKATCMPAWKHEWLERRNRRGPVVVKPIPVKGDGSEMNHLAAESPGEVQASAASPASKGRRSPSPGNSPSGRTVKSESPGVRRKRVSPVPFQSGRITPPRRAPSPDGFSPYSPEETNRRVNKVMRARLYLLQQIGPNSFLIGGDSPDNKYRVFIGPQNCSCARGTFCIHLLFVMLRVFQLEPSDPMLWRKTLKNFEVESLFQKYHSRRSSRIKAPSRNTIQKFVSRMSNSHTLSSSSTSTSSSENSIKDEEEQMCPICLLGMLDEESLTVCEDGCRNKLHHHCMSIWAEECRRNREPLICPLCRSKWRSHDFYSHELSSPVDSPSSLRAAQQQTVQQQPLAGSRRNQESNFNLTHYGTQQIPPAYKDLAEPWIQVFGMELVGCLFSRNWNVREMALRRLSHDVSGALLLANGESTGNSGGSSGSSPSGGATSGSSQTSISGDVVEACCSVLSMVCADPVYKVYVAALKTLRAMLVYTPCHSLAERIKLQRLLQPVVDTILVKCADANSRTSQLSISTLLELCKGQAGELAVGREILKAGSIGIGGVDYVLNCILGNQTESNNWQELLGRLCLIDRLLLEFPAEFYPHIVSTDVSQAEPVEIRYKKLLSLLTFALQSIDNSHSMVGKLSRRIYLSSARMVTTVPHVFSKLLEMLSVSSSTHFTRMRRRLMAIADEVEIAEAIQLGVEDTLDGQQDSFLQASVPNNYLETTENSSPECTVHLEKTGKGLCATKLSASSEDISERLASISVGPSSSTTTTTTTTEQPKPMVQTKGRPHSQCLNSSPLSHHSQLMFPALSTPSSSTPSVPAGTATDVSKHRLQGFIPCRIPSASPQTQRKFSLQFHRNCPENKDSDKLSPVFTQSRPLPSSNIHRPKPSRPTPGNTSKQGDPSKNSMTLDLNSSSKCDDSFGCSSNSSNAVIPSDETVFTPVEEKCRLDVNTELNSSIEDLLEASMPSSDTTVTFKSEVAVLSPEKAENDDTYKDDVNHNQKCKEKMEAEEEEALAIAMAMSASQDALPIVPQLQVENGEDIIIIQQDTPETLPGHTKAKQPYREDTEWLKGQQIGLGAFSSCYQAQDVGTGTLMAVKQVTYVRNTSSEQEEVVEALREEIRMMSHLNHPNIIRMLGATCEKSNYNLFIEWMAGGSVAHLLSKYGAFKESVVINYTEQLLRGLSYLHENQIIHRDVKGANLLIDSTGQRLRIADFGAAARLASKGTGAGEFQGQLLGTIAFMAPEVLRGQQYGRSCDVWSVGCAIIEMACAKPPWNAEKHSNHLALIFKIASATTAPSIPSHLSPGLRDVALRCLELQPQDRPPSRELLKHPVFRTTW

With `O=C(NOC[C@H](O)CO)c1ccc(F)c(F)c1Nc1ccc(I)cc1F`, in test [1], the % of control was found to be 100%.
In test [2], `CNCCN1CCC(c2cc(CN(C)C(=O)c3cccc(Oc4ccccc4)c3)ccn2)CC1` had a % activity above 90%.
Molecule `N#Cc1cccc(-c2c[nH]c3ncnc(N4CCOCC4)c23)c1` returned a % of control in test [3] of 75%.
Turning to `CC[C@@H]1[C@H](F)C(=O)N[C@@H]1COc1nccc2cc(C(N)=O)c(OC)cc12` [ZIMLOVISERTIB], the % of inhibition in test [4] is 5.27%; in test [5] (at 0.01 µM) it was 9.7%; in test [5] (at 0.04 µM) it was -2.5%; in test [5] (at 0.2 µM) it was -19.5%; in test [5] (at 1 µM), -13.4%; in test [5] (at 5 µM), 3.7%.
